Results published in patent publication US20260083714A1, “DOSING REGIMEN FOR TREATING PKU WITH A PIPERIDINE INHIBITOR OF SLC6A19 FUNCTION” (Jnana Therapeutics Inc., priority 2022, published 2026).
Where two headings read alike, the source gives them in different places.

Assays:
[1] = Plasma levels of Compound 1 over 72 h, suspension versus tablet, fasted or fed, in healthy volunteers; assay type: in vivo; settings: human, oral, 100 mg, read-out: Plasma level, Mean; for concentration at 0.5 h: 0.5 h post-dose; for concentration at 1 h: 1 h post-dose; for concentration at 1.5 h: 1.5 h post-dose; for concentration at 2 h: 2 h post-dose; for concentration at 2.5 h: 2.5 h post-dose; for concentration at 3 h: 3 h post-dose; for concentration at 4 h: 4 h post-dose; for concentration at 6 h: 6 h post-dose; for concentration at 8 h: 8 h post-dose; for concentration at 10 h: 10 h post-dose; for concentration at 12 h: 12 h post-dose; for concentration at 24 h: 24 h post-dose; for concentration at 36 h: 36 h post-dose; for concentration at 48 h: 48 h post-dose; for concentration at 72 h: 72 h post-dose; for concentration at 0 h: 0 h post-dose
Experimental: FIG. 4 is a graph of the pharmacokinetics of Compound 1 over 72 hours in healthy volunteers in fed or fasted states when administering 100 mg of the compound as a suspension formulation or a tablet.
A suspension formulation (100 mg, fasted) and tablet formulation (100 mg, fasted or fed) of Compound 1 was administered to healthy volunteers. Plasma levels of Compound 1 over 72 was measured (FIG. 4). Post-dose plasma levels are recited in Table 16.

[2] = molecular target: T1, SLC6A19 (Homo sapiens, UniProt Q695T7); experiment: Amino acid excretion over 24 h after a single dose of suspension in healthy volunteers; assay type: in vivo
T1 construct: SCL6A19 is located in the proximal tubule of the kidney and is responsible for reabsorption of amino acids back into the blood; from tissue; host or cells: Kidney proximal tubule of healthy volunteers (in vivo, endogenous)
T1 sequence (Q695T7 1-634): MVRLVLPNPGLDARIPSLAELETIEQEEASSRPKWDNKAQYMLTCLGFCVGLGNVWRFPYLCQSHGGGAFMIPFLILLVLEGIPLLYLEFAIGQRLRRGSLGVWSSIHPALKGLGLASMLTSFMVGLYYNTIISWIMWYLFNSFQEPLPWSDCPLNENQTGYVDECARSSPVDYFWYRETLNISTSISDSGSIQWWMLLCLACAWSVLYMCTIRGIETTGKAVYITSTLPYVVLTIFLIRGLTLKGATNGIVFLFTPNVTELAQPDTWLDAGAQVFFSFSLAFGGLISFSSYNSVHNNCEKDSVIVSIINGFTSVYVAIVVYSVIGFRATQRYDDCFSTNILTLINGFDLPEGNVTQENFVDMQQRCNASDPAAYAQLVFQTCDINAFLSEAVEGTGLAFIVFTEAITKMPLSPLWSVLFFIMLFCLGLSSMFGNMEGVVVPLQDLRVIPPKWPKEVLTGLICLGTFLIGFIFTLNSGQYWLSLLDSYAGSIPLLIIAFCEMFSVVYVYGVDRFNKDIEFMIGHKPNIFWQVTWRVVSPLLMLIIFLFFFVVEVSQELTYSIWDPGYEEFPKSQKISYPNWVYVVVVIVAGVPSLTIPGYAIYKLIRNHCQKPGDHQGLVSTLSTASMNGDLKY
T1 sequence (Q9HBJ8 15-222 partner): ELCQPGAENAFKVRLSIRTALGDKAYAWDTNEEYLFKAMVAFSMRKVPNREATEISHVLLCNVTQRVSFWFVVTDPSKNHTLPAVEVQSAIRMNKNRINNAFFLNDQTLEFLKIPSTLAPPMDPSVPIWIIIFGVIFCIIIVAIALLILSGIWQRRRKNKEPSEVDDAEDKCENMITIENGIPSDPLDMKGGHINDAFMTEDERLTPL
Experimental: FIG. 1 is a graph of the pharmacodynamic effect of Compound 1 in healthy volunteers showing changes in total phenylalanine or overall SLC6A19 amino acid substrates (Hartnup amino acids) excretion over 24 hours following administration of a single dose of the compound (10-170 mg) in the form of a suspension.
A suspension formulation of varying doses of Compound 1 (10-170 mg) was administered to healthy volunteers. Changes in amino acid excretion over 24 h following a single dose were measured (FIG. 1). Up to a 14-fold increase in total Phe excretion (from 10 mg to 142 mg) and a 16-fold increase in Hartnup AA excretion (from 0.29 g to 4.8 g) were observed over 24 hr after dosing (Tables 13A and 13B).

[3] = single dose suspension, highest value of 10-170 mg

SMILES: NC(=O)N1CCC[C@@H](N(C(=O)NCc2ccc(OC(F)(F)F)cc2F)C2CC2)C1 [Cpd 1, (R)-3-(1-cyclopropyl-3-(2-fluoro-4-(trifluoromethoxy)benzyl)ureido) piperidine-1-carboxamide]
- concentration at 0.5 h ([1]; 100 mg suspension, fasted): 1.84 µg/mL
- concentration at 1 h ([1]; 100 mg suspension, fasted): 2.31 µg/mL
- concentration at 1.5 h ([1]; 100 mg suspension, fasted): 2.44 µg/mL
- concentration at 2 h ([1]; 100 mg suspension, fasted): 2.63 µg/mL
- concentration at 2.5 h ([1]; 100 mg suspension, fasted): 2.62 µg/mL
- concentration at 3 h ([1]; 100 mg suspension, fasted): 2.72 µg/mL
- concentration at 4 h ([1]; 100 mg suspension, fasted): 2.75 µg/mL
- concentration at 6 h ([1]; 100 mg suspension, fasted): 2.09 µg/mL
- concentration at 8 h ([1]; 100 mg suspension, fasted): 1.58 µg/mL
- concentration at 10 h ([1]; 100 mg suspension, fasted): 1.11 µg/mL
- concentration at 12 h ([1]; 100 mg suspension, fasted): 0.778 µg/mL
- concentration at 24 h ([1]; 100 mg suspension, fasted): 0.216 µg/mL
- concentration at 36 h ([1]; 100 mg suspension, fasted): 0.05 µg/mL
- concentration at 48 h ([1]; 100 mg suspension, fasted): 0.0242 µg/mL
- concentration at 72 h ([1]; 100 mg suspension, fasted): 0.0129 µg/mL
- concentration at 0 h ([1]; 100 mg tablet, fasted): 0.0121 µg/mL
- concentration at 0.5 h ([1]; 100 mg tablet, fasted): 1.6 µg/mL
- concentration at 1 h ([1]; 100 mg tablet, fasted): 2.11 µg/mL
- concentration at 1.5 h ([1]; 100 mg tablet, fasted): 2.4 µg/mL
- concentration at 2 h ([1]; 100 mg tablet, fasted): 2.55 µg/mL
- concentration at 2.5 h ([1]; 100 mg tablet, fasted): 2.53 µg/mL
- concentration at 3 h ([1]; 100 mg tablet, fasted): 2.58 µg/mL
- concentration at 4 h ([1]; 100 mg tablet, fasted): 2.58 µg/mL
- concentration at 6 h ([1]; 100 mg tablet, fasted): 2.07 µg/mL
- concentration at 8 h ([1]; 100 mg tablet, fasted): 1.65 µg/mL
- concentration at 10 h ([1]; 100 mg tablet, fasted): 1.25 µg/mL
- concentration at 12 h ([1]; 100 mg tablet, fasted): 0.891 µg/mL
- concentration at 24 h ([1]; 100 mg tablet, fasted): 0.324 µg/mL
- concentration at 36 h ([1]; 100 mg tablet, fasted): 0.0595 µg/mL
- concentration at 48 h ([1]; 100 mg tablet, fasted): 0.029 µg/mL
- concentration at 72 h ([1]; 100 mg tablet, fasted): 0.0115 µg/mL
- concentration at 0 h ([1]; 100 mg tablet, fed): 0.0121 µg/mL
- concentration at 0.5 h ([1]; 100 mg tablet, fed): 1.66 µg/mL
- concentration at 1 h ([1]; 100 mg tablet, fed): 2.22 µg/mL
- concentration at 1.5 h ([1]; 100 mg tablet, fed): 2.32 µg/mL
- concentration at 2 h ([1]; 100 mg tablet, fed): 2.85 µg/mL
- concentration at 2.5 h ([1]; 100 mg tablet, fed): 2.91 µg/mL
- concentration at 3 h ([1]; 100 mg tablet, fed): 2.95 µg/mL
- concentration at 4 h ([1]; 100 mg tablet, fed): 2.86 µg/mL
- concentration at 6 h ([1]; 100 mg tablet, fed): 2.26 µg/mL
- concentration at 8 h ([1]; 100 mg tablet, fed): 1.74 µg/mL
- concentration at 10 h ([1]; 100 mg tablet, fed): 1.27 µg/mL
- concentration at 12 h ([1]; 100 mg tablet, fed): 0.963 µg/mL
- concentration at 24 h ([1]; 100 mg tablet, fed): 0.329 µg/mL
- concentration at 36 h ([1]; 100 mg tablet, fed): 0.0901 µg/mL
- concentration at 48 h ([1]; 100 mg tablet, fed): 0.045 µg/mL
- concentration at 72 h ([1]; 100 mg tablet, fed): 0.015 µg/mL
- Excretion amounts over 24 h, Hartnup Amino Acids, Mean ([2]; single dose 10 mg suspension): 712.45 mg
- Excretion amounts over 24 h, Phenylalanine, Mean ([2]; single dose 10 mg suspension): 12.50 mg
- Excretion amounts over 24 h, Hartnup Amino Acids, Mean ([2]; single dose 25 mg suspension): 1213.02 mg
- Excretion amounts over 24 h, Phenylalanine, Mean ([2]; single dose 25 mg suspension): 21.02 mg
- Excretion amounts over 24 h, Hartnup Amino Acids, Mean ([2]; single dose 50 mg suspension): 2560.22 mg
- Excretion amounts over 24 h, Phenylalanine, Mean ([2]; single dose 50 mg suspension): 51.53 mg
- Excretion amounts over 24 h, Hartnup Amino Acids, Mean ([2]; single dose 100 mg suspension): 3281.75 mg
- Excretion amounts over 24 h, Phenylalanine, Mean ([2]; single dose 100 mg suspension): 77.84 mg
- Excretion amounts over 24 h, Hartnup Amino Acids, Mean ([2]; single dose 170 mg suspension): 4823.71 mg
- Excretion amounts over 24 h, Phenylalanine, Mean ([2]; single dose 170 mg suspension): 141.61 mg
- increase in total Phe excretion over 24 hr after dosing ([2]; single dose 10-170 mg suspension, versus 10 mg baseline): ≤ 14 fold
- increase in Hartnup AA excretion over 24 hr after dosing ([2]; single dose 10-170 mg suspension, versus 0.29 g baseline): ≤ 16 fold
- Hartnup AA excretion over 24 hr after dosing [2, 3]: 4.8 g
- total Phe excretion over 24 hr after dosing [2, 3]: 142 mg
